Laboratory results as given in US11807835B2, “Detergent compositions containing a stabilized enzyme by phosphonates” (ECOLAB USA INC., priority 2016, dated 2023).

Key:
amylase = experiment: Amylase activity retention in detergent use solution (4000 ppm, 5 GPG water; ethylidene substrate EPS, HEPES buffer pH 8.0); type: biochemical
Experimental: (§1) The enzyme activities in the detergents with different phosphonate levels were tested at 4000 ppm in 5 grains per gallon (GPG) water at 120° F. with various time points collected up to 4 hours, after a use solution was generated from the detergent composition. During the tests, the samples at different time points were collected and immediately frozen in an acetone/dry ice bath and stored in −80° C. before the activity of the enzyme was evaluated. For the use of such an assay, t=0 min was the reference point for 100% enzyme activity.
(§2) Assays of enzyme activity in formulations (% retention) were conducted to simulate a presoak condition in a beaker using the chemistry, temperature, and pH conditions relevant to manual warewash or presoak applications. Enzyme activity is an indicator of the stability of the enzyme in the detergent, specifically in an aqueous use solution within a sump (which is under conditions of high pH, temperature and dilution).
(§3) Enzyme activity under presoak or manual warewash conditions was traced quantitatively using a standard protease assay. Samples were prepared under bench top conditions, whereby the use solution from a detergent composition or detergent was obtained and maintained at a presoak or manual warewash temperature in a stirring water bath. After the time course for assessing enzyme stability is initiated, aliquots were taken at various time points and flash-frozen. A time=0 sample was prepared for each series by dissolving the detergent formulation at room temperature, mixing thoroughly, and flash freezing. Samples were thawed and diluted as necessary in an assay buffer usually for use in the protease assay. A glycine buffer at pH 9.0 is used here. The assay monitored the direct reaction of the protease on a small, commercially available peptidyl substrate, with liberation of the product providing correlation to the active enzyme content. The product was detected using a plate reader with an appreciable dynamic range (upper absorbance limit of the instrument >3.5). Enzyme activity levels were assessed relative to a calibration curve with average values for replicate tests used to map protease stability under presoak or manual warewash use conditions. Enzyme retention at each time point was calculated as the % enzyme activity relative to the time=0 sample.
The analysis by lipase and amylase assay was conducted similarly, except with a different substrate and buffers. For lipase activity, the substrate is p-nitrophenyl valerate, and for amylase, the substrate is an ethylidene substrate (EPS). The buffer used in lipase assay is TRIS (Tris(hydroxymethyl)aminomethane) buffer at pH 8.0, and in amylase assay HEPES (4-(2-hydroxyethyl)-1-piperazineethanesulfonic acid) buffer at pH 8.0.

protease = experiment: Protease activity retention in detergent use solution (4000 ppm, 5 GPG water; peptidyl substrate, glycine buffer pH 9.0); type: biochemical; conditions: for Relative Protease Enzyme Activity: use solution at 120° F.
Experimental: as §1, §2
The analysis by protease assay was conducted as follows. For the assays, a detergent composition was used to generate an aqueous use solution evaluated herein.
as §3

SMILES: CC(O)(P(=O)(O)O)P(=O)(O)O [HEDP, 1-hydroxy ethylidene-1,1-diphosphonic acid]
- Relative Amylase Enzyme Activity (amylase; All Ash formula, phosphonate 0.3 wt-%, use solution at 120° F., time 0 min): 92.90%
- Relative Amylase Enzyme Activity (amylase; All Ash formula, phosphonate 0.3 wt-%, use solution at 120° F., time 5 min): 100.00%
- Relative Amylase Enzyme Activity (amylase; All Ash formula, phosphonate 0.3 wt-%, use solution at 120° F., time 10 min): 97.04%
- Relative Amylase Enzyme Activity (amylase; All Ash formula, phosphonate 0.3 wt-%, use solution at 120° F., time 20 min): 87.85%
- Relative Amylase Enzyme Activity (amylase; All Ash formula, phosphonate 0.3 wt-%, use solution at 120° F., time 40 min): 70.85%
- Relative Amylase Enzyme Activity (amylase; All Ash formula, phosphonate 0.3 wt-%, use solution at 120° F., time 60 min): 55.60%
- Relative Amylase Enzyme Activity (amylase; All Ash formula, phosphonate 0.3 wt-%, use solution at 120° F., time 90 min): 63.30%
- Relative Amylase Enzyme Activity (amylase; All Ash formula, phosphonate 0.3 wt-%, use solution at 120° F., time 120 min): 58.18%
- Relative Amylase Enzyme Activity (amylase; All Ash formula, phosphonate 0.3 wt-%, use solution at 120° F., time 150 min): 54.50%
- Relative Amylase Enzyme Activity (amylase; All Ash formula, phosphonate 0.3 wt-%, use solution at 120° F., time 180 min): 45.78%
- Relative Amylase Enzyme Activity (amylase; All Ash formula, phosphonate 0.3 wt-%, use solution at 120° F., time 210 min): 44.79%
- Relative Amylase Enzyme Activity (amylase; All Ash formula, phosphonate 0.3 wt-%, use solution at 120° F., time 240 min): 41.67%
- Relative Amylase Enzyme Activity (amylase; base formula, phosphonate 0.3 wt-%, use solution at 120° F., time 0 min): 100.00%
- Relative Amylase Enzyme Activity (amylase; base formula, phosphonate 0.3 wt-%, use solution at 120° F., time 5 min): 81.99%
- Relative Amylase Enzyme Activity (amylase; base formula, phosphonate 0.3 wt-%, use solution at 120° F., time 10 min): 90.32%
- Relative Amylase Enzyme Activity (amylase; base formula, phosphonate 0.3 wt-%, use solution at 120° F., time 20 min): 95.23%
- Relative Amylase Enzyme Activity (amylase; base formula, phosphonate 0.3 wt-%, use solution at 120° F., time 40 min): 84.92%
- Relative Amylase Enzyme Activity (amylase; base formula, phosphonate 0.3 wt-%, use solution at 120° F., time 60 min): 72.27%
- Relative Amylase Enzyme Activity (amylase; base formula, phosphonate 0.3 wt-%, use solution at 120° F., time 90 min): 79.95%
- Relative Amylase Enzyme Activity (amylase; base formula, phosphonate 0.3 wt-%, use solution at 120° F., time 120 min): 84.46%
- Relative Amylase Enzyme Activity (amylase; base formula, phosphonate 0.3 wt-%, use solution at 120° F., time 150 min): 79.54%
- Relative Amylase Enzyme Activity (amylase; base formula, phosphonate 0.3 wt-%, use solution at 120° F., time 180 min): 84.18%
- Relative Amylase Enzyme Activity (amylase; base formula, phosphonate 0.3 wt-%, use solution at 120° F., time 210 min): 69.49%
- Relative Amylase Enzyme Activity (amylase; base formula, phosphonate 0.3 wt-%, use solution at 120° F., time 240 min): 88.63%
- Relative Amylase Enzyme Activity (amylase; base formula, phosphonate 0.6 wt-%, use solution at 120º F., time 0 min): 100.00%
- Relative Amylase Enzyme Activity (amylase; base formula, phosphonate 0.6 wt-%, use solution at 120º F., time 5 min): 96.09%
- Relative Amylase Enzyme Activity (amylase; base formula, phosphonate 0.6 wt-%, use solution at 120º F., time 10 min): 99.71%
- Relative Amylase Enzyme Activity (amylase; base formula, phosphonate 0.6 wt-%, use solution at 120º F., time 20 min): 91.20%
- Relative Amylase Enzyme Activity (amylase; base formula, phosphonate 0.6 wt-%, use solution at 120º F., time 40 min): 94.89%
- Relative Amylase Enzyme Activity (amylase; base formula, phosphonate 0.6 wt-%, use solution at 120º F., time 60 min): 97.28%
- Relative Amylase Enzyme Activity (amylase; base formula, phosphonate 0.6 wt-%, use solution at 120º F., time 90 min): 94.67%
- Relative Amylase Enzyme Activity (amylase; base formula, phosphonate 0.6 wt-%, use solution at 120º F., time 120 min): 88.12%
- Relative Amylase Enzyme Activity (amylase; base formula, phosphonate 0.6 wt-%, use solution at 120º F., time 150 min): 90.33%
- Relative Amylase Enzyme Activity (amylase; base formula, phosphonate 0.6 wt-%, use solution at 120º F., time 180 min): 86.96%
- Relative Amylase Enzyme Activity (amylase; base formula, phosphonate 0.6 wt-%, use solution at 120º F., time 210 min): 96.92%
- Relative Amylase Enzyme Activity (amylase; base formula, phosphonate 0.6 wt-%, use solution at 120º F., time 240 min): 92.50%
- Relative Amylase Enzyme Activity (amylase; base formula, phosphonate at 0.1% elemental phosphorus level, use solution at 120º F., time 5 min): 100.00%
- Relative Amylase Enzyme Activity (amylase; base formula, phosphonate at 0.1% elemental phosphorus level, use solution at 120º F., time 10 min): 97.58%
- Relative Amylase Enzyme Activity (amylase; base formula, phosphonate at 0.1% elemental phosphorus level, use solution at 120º F., time 20 min): 90.30%
- Relative Amylase Enzyme Activity (amylase; base formula, phosphonate at 0.1% elemental phosphorus level, use solution at 120º F., time 40 min): 81.48%
- Relative Amylase Enzyme Activity (amylase; base formula, phosphonate at 0.1% elemental phosphorus level, use solution at 120º F., time 60 min): 83.84%
- Relative Amylase Enzyme Activity (amylase; base formula, phosphonate at 0.1% elemental phosphorus level, use solution at 120º F., time 90 min): 85.26%
- Relative Amylase Enzyme Activity (amylase; base formula, phosphonate at 0.1% elemental phosphorus level, use solution at 120º F., time 120 min): 82.59%
- Relative Amylase Enzyme Activity (amylase; base formula, phosphonate at 0.1% elemental phosphorus level, use solution at 120º F., time 180 min): 75.47%
- Relative Amylase Enzyme Activity (amylase; base formula, phosphonate at 0.1% elemental phosphorus level, use solution at 120º F., time 210 min): 85.77%
- Relative Amylase Enzyme Activity (amylase; base formula, phosphonate at 0.1% elemental phosphorus level, use solution at 120º F., time 240 min): 81.23%
- Relative Protease Enzyme Activity (protease; All Ash formula, phosphonate 0.3 wt-%, time 0 min): 100.00%
- Relative Protease Enzyme Activity (protease; All Ash formula, phosphonate 0.3 wt-%, time 5 min): 8.63%
- Relative Protease Enzyme Activity (protease; All Ash formula, phosphonate 0.3 wt-%, time 10 min): 3.25%
- Relative Protease Enzyme Activity (protease; All Ash formula, phosphonate 0.3 wt-%, time 20 min): 0.61%
- Relative Protease Enzyme Activity (protease; All Ash formula, phosphonate 0.3 wt-%, time 40 min): −1.32%
- Relative Protease Enzyme Activity (protease; All Ash formula, phosphonate 0.3 wt-%, time 60 min): −1.66%
- Relative Protease Enzyme Activity (protease; All Ash formula, phosphonate 0.3 wt-%, time 90 min): −0.97%
- Relative Protease Enzyme Activity (protease; All Ash formula, phosphonate 0.3 wt-%, time 120 min): −1.23%
- Relative Protease Enzyme Activity (protease; All Ash formula, phosphonate 0.3 wt-%, time 150 min): −0.85%
- Relative Protease Enzyme Activity (protease; All Ash formula, phosphonate 0.3 wt-%, time 180 min): −0.93%
- Relative Protease Enzyme Activity (protease; All Ash formula, phosphonate 0.3 wt-%, time 210 min): −0.42%
- Relative Protease Enzyme Activity (protease; All Ash formula, phosphonate 0.3 wt-%, time 240 min): −0.42%
- Relative Protease Enzyme Activity (protease; base formula, phosphonate 0.3 wt-%, time 0 min): 100.00%
- Relative Protease Enzyme Activity (protease; base formula, phosphonate 0.3 wt-%, time 5 min): 52.21%
- Relative Protease Enzyme Activity (protease; base formula, phosphonate 0.3 wt-%, time 10 min): 32.95%
- Relative Protease Enzyme Activity (protease; base formula, phosphonate 0.3 wt-%, time 20 min): 15.91%
- Relative Protease Enzyme Activity (protease; base formula, phosphonate 0.3 wt-%, time 40 min): 8.68%
- Relative Protease Enzyme Activity (protease; base formula, phosphonate 0.3 wt-%, time 60 min): 5.52%
- Relative Protease Enzyme Activity (protease; base formula, phosphonate 0.3 wt-%, time 90 min): 4.10%
- Relative Protease Enzyme Activity (protease; base formula, phosphonate 0.3 wt-%, time 120 min): 3.10%
- Relative Protease Enzyme Activity (protease; base formula, phosphonate 0.3 wt-%, time 150 min): 2.39%
- Relative Protease Enzyme Activity (protease; base formula, phosphonate 0.3 wt-%, time 180 min): 1.65%
- Relative Protease Enzyme Activity (protease; base formula, phosphonate 0.3 wt-%, time 210 min): 1.36%
- Relative Protease Enzyme Activity (protease; base formula, phosphonate 0.3 wt-%, time 240 min): 1.20%
- Relative Protease Enzyme Activity (protease; base formula, phosphonate 0.6 wt-%, time 0 min): 100.00%
- Relative Protease Enzyme Activity (protease; base formula, phosphonate 0.6 wt-%, time 5 min): 69.69%
- Relative Protease Enzyme Activity (protease; base formula, phosphonate 0.6 wt-%, time 10 min): 51.90%
- Relative Protease Enzyme Activity (protease; base formula, phosphonate 0.6 wt-%, time 20 min): 27.67%
- Relative Protease Enzyme Activity (protease; base formula, phosphonate 0.6 wt-%, time 40 min): 12.41%
- Relative Protease Enzyme Activity (protease; base formula, phosphonate 0.6 wt-%, time 60 min): 7.62%
- Relative Protease Enzyme Activity (protease; base formula, phosphonate 0.6 wt-%, time 90 min): 4.70%
- Relative Protease Enzyme Activity (protease; base formula, phosphonate 0.6 wt-%, time 120 min): 2.94%
- Relative Protease Enzyme Activity (protease; base formula, phosphonate 0.6 wt-%, time 150 min): 1.79%
- Relative Protease Enzyme Activity (protease; base formula, phosphonate 0.6 wt-%, time 180 min): 0.92%
- Relative Protease Enzyme Activity (protease; base formula, phosphonate 0.6 wt-%, time 210 min): 0.71%
- Relative Protease Enzyme Activity (protease; base formula, phosphonate 0.6 wt-%, time 240 min): 0.45%
- Relative Protease Enzyme Activity (protease; base formula, phosphonate at 0.1% elemental phosphorus, time 0 min): 100.00%
- Relative Protease Enzyme Activity (protease; base formula, phosphonate at 0.1% elemental phosphorus, time 5 min): 77.74%
- Relative Protease Enzyme Activity (protease; base formula, phosphonate at 0.1% elemental phosphorus, time 10 min): 53.71%
- Relative Protease Enzyme Activity (protease; base formula, phosphonate at 0.1% elemental phosphorus, time 20 min): 23.58%
- Relative Protease Enzyme Activity (protease; base formula, phosphonate at 0.1% elemental phosphorus, time 40 min): 9.12%
- Relative Protease Enzyme Activity (protease; base formula, phosphonate at 0.1% elemental phosphorus, time 60 min): 5.36%
- Relative Protease Enzyme Activity (protease; base formula, phosphonate at 0.1% elemental phosphorus, time 90 min): 3.76%
- Relative Protease Enzyme Activity (protease; base formula, phosphonate at 0.1% elemental phosphorus, time 120 min): 2.44%
- Relative Protease Enzyme Activity (protease; base formula, phosphonate at 0.1% elemental phosphorus, time 150 min): 1.45%
- Relative Protease Enzyme Activity (protease; base formula, phosphonate at 0.1% elemental phosphorus, time 180 min): 0.74%
- Relative Protease Enzyme Activity (protease; base formula, phosphonate at 0.1% elemental phosphorus, time 210 min): 0.64%
- Relative Protease Enzyme Activity (protease; base formula, phosphonate at 0.1% elemental phosphorus, time 240 min): 0.45%
- enzyme activity of amine salt of the phosphonate versus non-neutralized phosphonate (protease; phosphonate neutralized with an amine, such as triethanolamine): much improved enzyme activity
